Measurements: patent publication US6921821B2, “Antagonists of melanin concentrating hormone receptor” (Abbott Laboratories, priority 2002, dated 2005)
Where a name gives a salt, the structure may show the parent alone.

Target: T1, murine MCHR (Mus musculus, UniProt Q8JZL2)
T1 construct: expressed in transfected cells; host or cells: HEK293
Assay: Assay for release of intracellular calcium (FLIPR, Fluo-4), inhibition of MCH-induced Ca++ flux
Format: cell-based
Conditions: test compound at a dose of 10 μM, HEK293 cells expressing the murine MCHR, read-out: inhibition of MCH (MCH induced Ca++ flux / fluorescence)
Method: Assay for Release of Intracellular Calcium
Activation of the melanin concentrating hormone receptor (MCHR) by MCH induces the release of Ca^++ from intracellular stores. This intracellular calcium release is measured using a fluorometric imaging plate reader (FLIPR™, Molecular Devices Corp.) in conjunction with the Ca^++-sensitive dye Fluo-4. Release of Ca^++ from intracellular stores causes an increase in fluorescence of the dye that is proportional to Ca^++ concentration. Briefly, the assays are performed as follows. HEK293 cells expressing the murine MCHR are plated overnight at 50,000 cells/well in 96-well plates. The following day, culture medium is removed and replaced with 100 μl/well of D-PBS (+glucose and sodium pyruvate) containing 2.5 μM Fluo-4AM (Molecular Probes), 0.01% Pluronic F-127 and 2.5 mM probenecid. Cells are loaded with the Fluo-4 dye for at least one hour at room temp. After loading, the cells are washed gently to remove extracellular dye and 100 μl of D-PBS (+glucose and sodium pyruvate) is added to each well. Test compounds are prepared at 40 μM in 4% DMSO. The cell plate is placed in the FLIPR™ and 50 μl/well of test compound is delivered. The calcium signal is followed for 3 minutes to assay for potential agonist activity by the test compounds. Then 50 μl/well of 12 nM mouse MCH (in D-PBS containing 0.1% BSA) is added and the ligand-induced calcium signal is followed for an additional 3 minutes. Antagonist activity as determined by the test compounds ability to inhibit MCH induced Ca^++ flux is calculated as % inhibition as described by the following formula: % inhibition=[1−((fTC−fB)÷(fMCH−fB))]×100, where fTC=MCH-induced fluorescence in the presence of test compound; fMCH=MCH-induced fluorescence in the absence of test compound; and fB=Baseline fluorescence.
MCH (3 nM) usually elicits a response of 30,000-40,000 relative fluorescence units (RFU) with a baseline of about 1000 RFU. Fluo-4 fluorescence is measured at 488 nm, with an exposure of 0.40 sec. and F-stop=2.0 and the laser set at 0.40-0.60 W constant light output.

T1 sequence (Q8JZL2 whole entry): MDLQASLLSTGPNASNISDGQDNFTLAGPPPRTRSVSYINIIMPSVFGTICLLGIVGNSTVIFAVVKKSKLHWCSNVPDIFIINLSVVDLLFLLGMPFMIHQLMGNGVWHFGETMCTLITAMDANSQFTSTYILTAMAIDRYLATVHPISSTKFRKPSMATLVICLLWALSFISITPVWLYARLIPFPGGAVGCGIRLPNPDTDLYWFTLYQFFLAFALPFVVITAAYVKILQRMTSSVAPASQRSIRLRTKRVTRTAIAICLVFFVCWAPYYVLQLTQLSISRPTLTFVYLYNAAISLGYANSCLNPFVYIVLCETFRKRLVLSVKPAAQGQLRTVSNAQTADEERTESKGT

Compound | inhibition at 10 µM
COc1ccc2oc(=O)cc(NC3CCN(Cc4ccc5ncccc5c4)CC3)c2c1 [II-112, 6-Methoxy-4-(1-quinolin-6-ylmethyl-piperidin-4-ylamino)-chromen-2-one] | ≥ 50%
Cn1c(=O)cc(NC2CCN(C/C=C/c3ccccc3)CC2)c2cc(Cl)ccc21 [Compound V-29, 6-Chloro-1-methyl-4-[1-(3-phenyl-allyl)-piperidin-4-ylamino]-1H-quinolin-2-one] | ≥ 50%
COc1ccc2oc(=O)cc(NC3CCN(Cc4cccc(F)c4)CC3)c2c1 [II-79, 4-[1-(3-Fluoro-benzyl)-piperidin-4-ylamino]-6-methoxy-chromen-2-one trifluoroacetate] | ≥ 50%
CCOc1cccc(CN2CCC(Nc3cc(=O)oc4ccc(OC)cc34)CC2)c1 [II-97, 4-[1-(3-Ethoxy-benzyl)-piperidin-4-ylamino]-6-methoxy-chromen-2-one trifluoroacetate] | ≥ 50%
COC(=O)c1c(NC2CCN(Cc3ccc4c(c3)OCO4)CC2)c2cc(Cl)ccc2n(C)c1=O [Compound V-39, 4-(1-Benzo[1,3]dioxol-5-ylmethyl-piperidin-4-ylamino)-6-chloro-1-methyl-2-oxo-1,2-dihydro-quinoline-3-carboxylic acid methyl ester] | ≥ 50%
Cc1ccc2oc(=O)cc(NC3CCN(C/C=C/c4ccccc4)CC3)c2c1 [III-6, 6-Methyl-4-[1-(3-phenyl-allyl)-piperidin-4-ylamino]-chromen-2-one] | ≥ 50%
COc1ccc2oc(=O)cc(NC3CCN(Cc4ccc5ocnc5c4)CC3)c2c1 [II-44, 4-(1-Benzooxazol-5-ylmethyl-piperidin-4-ylamino)-6-methoxy-chromen-2-one] | ≥ 50%
COc1ccc2oc(=O)cc(NC3CCN(Cc4ccc5ccccc5c4)CC3)c2c1 [II-19, 6-Methoxy-4-(1-naphthalen-2-ylmethyl-piperidin-4-ylamino)-chromen-2-one trifluoroacetate] | ≥ 50%
COc1ccc2c(c1)c(NC1CCN(C/C=C/c3ccccc3)CC1)cc(=O)n2C [Compound V-14, 6-Methoxy-1-methyl-4-[1-(3-phenyl-allyl)-piperidin-4-ylamino]-1H-quinolin-2-one] | ≥ 50%
COc1ccc2oc(=O)cc(NC3CCN(Cc4ccc5c(c4)OC(F)(F)O5)CC3)c2c1 [II-68, 4-[1-(2,2-Difluoro-benzo[1,3]dioxol-5-ylmethyl)-piperidin-4-ylamino]-6-methoxy-chromen-2-one trifluoroacetate] | ≥ 50%
O=c1cc(NC2CCN(C/C=C/c3ccccc3F)CC2)c2ccccc2o1 [III-14, 4-{1-[3-(2-Fluoro-phenyl)-allyl]-piperidin-4-ylamino}-chromen-2-one] | ≥ 50%
COc1ccc2oc(=O)cc(NC3CCN(Cc4ccc(OCCCN5CCCCC5)c(Cl)c4)CC3)c2c1 [II-115, 4-{1-[3-Chloro-4-(3-piperidin-1-yl-propoxy)-benzyl]-piperidin-4-ylamino}-6-methoxy-chromen-2-one; Double TFA Salt] | ≥ 50%
COc1ccc2oc(=O)cc(NC3CCN(Cc4ccc(C(=O)N5CCN(Cc6ccccc6)CC5)cc4)CC3)c2c1 [II-94, 4-{1-[4-(4-Benzyl-piperazine-1-carbonyl)-benzyl]-piperidin-4-ylamino}-6-methoxy-chromen-2-one; Double TFA Salt] | ≥ 50%
CC(c1ccc(O)c(F)c1)N1CCC(Nc2cc(=O)oc3ccc(Cl)cc23)CC1 (stereo not drawn) [II-113, 6-Chloro-4-{1-[1-(3-fluoro-4-hydroxy-phenyl)-ethyl]-piperidin-4-ylamino}-chromen-2-one] | ≥ 50%
CC(=O)Nc1c(NC2CCN(Cc3ccc4c(c3)OCO4)CC2)c2cc(Cl)ccc2oc1=O [II-42, N-[4-(1-Benzo[1,3]dioxol-5-ylmethyl-piperidin-4-ylamino)-6-chloro-2-oxo-2H-chromen-3-yl]-acetamide] | ≥ 50%
C=Cc1ccc2oc(=O)cc(NC3CCN(Cc4ccc5c(c4)OCCO5)CC3)c2c1 [II-57, 4-{1-(2,3-Dihydrobenzo{1,4}dioxin-6-ylmethyl)-piperidin-4-ylamino}-6-vinyl-chromen-2-one] | ≥ 50%
O=c1cc(NC2CCN(Cc3ccc4occc4c3)CC2)c2cc(Cl)ccc2n1Cc1ccccn1 [Compound V-26, 4-(1-Benzofuran-5-ylimethyl-piperidin-4-ylamino)-6-chloro-1-pyridin-2-ylmethyl-1H-quinolin-2-one] | ≥ 50%

Compound | inhibition at 10 µM
CC(=O)c1ccc(C(C)N2CCC(Nc3cc(=O)oc4ccc(Cl)cc34)CC2)cc1 (racemic) [II-116, 4-{1-[1-(4-acetylphenyl)-ethyl]-piperidin-4-ylamino}-6-chlorochromen-2-one] | ≥ 50%
O=c1cc(NC2CCN(Cc3ccc4c(c3)OCO4)CC2)c2cccc3c2n1CCC3 [Compound V-36, 1-(1-Benzo[1,3]dioxol-5-ylmethyl-piperidin-4-ylamino)-6,7-dihydro-5H-pyrido[3,2,1-ij]quinolin-3-one] | ≥ 50%
O=c1cc(NC2CCN(C/C=C/c3ccccc3)CC2)c2cc(Br)ccc2o1 [III-5, 6-Bromo-4-[1-(3-phenyl-allyl)-piperidine-4-ylamino]-chromen-2-one] | ≥ 50%
Cc1ccc2c(c1)c(NC1CCN(C/C=C/c3ccccc3)CC1)cc(=O)n2C [Compound V-38, 1,6-Dimethyl-4-[1-(3-phenyl-allyl)-piperidin-4-ylamino]-1H-quinolin-2-one] | ≥ 50%
CCCCOc1ccc(CN2CCC(Nc3cc(=O)oc4ccc(OC)cc34)CC2)cc1 [II-50, 4-[1-(4-Butoxy-benzyl)-piperidin-4-ylamino]-6methoxy-chromen-2-one trifluoroacetate] | ≥ 50%
N#Cc1ccc2oc(=O)cc(NC3CCN(Cc4ccc5c(c4)OCO5)CC3)c2c1 [II-75, 4-(1-Benzo[1,3]dioxol-5-ylmethyl-piperidin-4-ylamino)-2-oxo-2H-chromene-6-carbonitrile] | ≥ 50%
CCc1ccc2oc(=O)cc(NC3CCN(Cc4ccc5c(c4)OCO5)CC3)c2c1 [II-63, 4-(1-Benzo{1,3}dioxol-5-ylmethyl-piperidin-4-ylamino)-6-ethyl-chromen-2-one] | ≥ 50%
O=c1cc(NC2CCN(Cc3cc4ccccc4o3)CC2)c2cc(Cl)ccc2o1 [II-18, 4-(1-Benzofuran-2-ylmethyl-piperidin-4-ylamino)-6-chloro-chromen-2-one] | ≥ 50%
CCn1ccc2cc(CN3CCC(Nc4cc(=O)oc5ccc(OC)cc45)CC3)ccc21 [II-33, 6-Methoxy-4-[N-ethylindole-5-ylmethyl-piperidin-4-ylamino]-chromen-2-one] | ≥ 50%
COc1ccc2oc(=O)cc(N[C@@H]3CCN(Cc4ccc5c(c4)OCO5)C[C@H]3C)c2c1 (stereo in doubt) [II-72, 4-(1-Benzo[1,3]dioxol-5-ylmethyl-3-methyl-piperidin-4-ylamino)-6-methoxy-chromen-2-one] | ≥ 50%
O=c1cc(NC2CCN(Cc3ccc4ccccc4c3)CC2)c2cc(Cl)ccc2n1Cc1cccnc1 [Compound V-1, 6-Chloro-4-(1-naphthalen-2-ylmethyl-piperidin-4-ylamino)-1-pyridin-3-ylmethyl-1H-quinolin-2-one] | ≥ 50%
O=c1cc(NC2CCN(Cc3ccc4c(c3)OCO4)CC2)c2cc(Cl)cc(Br)c2o1 [II-41, 4-(1-Benzo[1,3]dioxol-5-ylmethyl-piperidin-4-ylamino)-8-bromo-6-chloro-chromen-2-one] | ≥ 50%
O=c1cc(NC2CCN(Cc3ccc4occc4c3)CC2)c2cc(Cl)ccc2n1Cc1ccncc1 [Compound V-10, 4-(1-Benzofuran-5-ylmethyl-piperidin-4-ylamino)-6-chloro-1-pyridin-4-ylmethyl-1H-quinolin-2-one] | ≥ 50%
O=c1cc(NC2CCN(Cc3ccc4ccccc4c3)CC2)c2cc(F)cc(F)c2o1 [II-85, 6,8-Difluoro-4-(1-naphthalen-2-ylmethyl-piperidin-4-ylamino)-chromen-2-one] | ≥ 50%
O=c1cc(NC2CCN(Cc3ccc4ccccc4c3)CC2)c2cc(Cl)ccc2n1Cc1ccncc1 [Compound V-5, 6-Chloro-4-(1-naphthalen-2-ylmethyl-piperidin-4-ylamino)-1-pyridin-4-ylmethyl-1H-quinolin-2-one] | ≥ 50%
O=c1cc(NC2CCN(Cc3ccc4ccccc4c3)CC2)c2cc(Cl)ccc2o1 [II-2, 6—Chloro-4-(1-naphthalen-2-ylmethyl-piperidin-4-ylamino)-chromen-2-one] | ≥ 50%
